From ChEMBL document CHEMBL1201862, “PubChem BioAssay data set” (2004)
Calls of active or inactive are those of the source. Cut-off read from the data, not from the text of the source, for most assays here: actives have a measured EC50 and inactives only a lower limit.

Experiments:
[1] = target: T1, Calpain-2 catalytic subunit (Sus scrofa, UniProt P43367); test: m-calpain protease blockers, concentration series – biochemical, fluorogenic peptide substrate, dose response (AID 1420); type: functional
T1 sequence (P43367 whole entry): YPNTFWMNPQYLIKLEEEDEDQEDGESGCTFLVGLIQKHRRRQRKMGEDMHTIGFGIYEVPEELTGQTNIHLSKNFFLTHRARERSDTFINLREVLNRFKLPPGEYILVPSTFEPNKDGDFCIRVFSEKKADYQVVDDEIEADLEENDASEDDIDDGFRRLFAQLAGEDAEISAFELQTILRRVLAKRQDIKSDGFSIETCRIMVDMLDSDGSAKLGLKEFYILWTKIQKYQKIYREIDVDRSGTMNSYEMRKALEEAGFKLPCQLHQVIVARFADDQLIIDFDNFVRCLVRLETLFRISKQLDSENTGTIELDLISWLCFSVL

[2] = target: Luciferin 4-monooxygenase (Photinus pyralis, UniProt P08659); test: inhibition of purified Photinus pyralis luciferase – biochemical, luminescence, dose response (AID 1891)
Chain of Luciferin 4-monooxygenase (P08659 whole entry): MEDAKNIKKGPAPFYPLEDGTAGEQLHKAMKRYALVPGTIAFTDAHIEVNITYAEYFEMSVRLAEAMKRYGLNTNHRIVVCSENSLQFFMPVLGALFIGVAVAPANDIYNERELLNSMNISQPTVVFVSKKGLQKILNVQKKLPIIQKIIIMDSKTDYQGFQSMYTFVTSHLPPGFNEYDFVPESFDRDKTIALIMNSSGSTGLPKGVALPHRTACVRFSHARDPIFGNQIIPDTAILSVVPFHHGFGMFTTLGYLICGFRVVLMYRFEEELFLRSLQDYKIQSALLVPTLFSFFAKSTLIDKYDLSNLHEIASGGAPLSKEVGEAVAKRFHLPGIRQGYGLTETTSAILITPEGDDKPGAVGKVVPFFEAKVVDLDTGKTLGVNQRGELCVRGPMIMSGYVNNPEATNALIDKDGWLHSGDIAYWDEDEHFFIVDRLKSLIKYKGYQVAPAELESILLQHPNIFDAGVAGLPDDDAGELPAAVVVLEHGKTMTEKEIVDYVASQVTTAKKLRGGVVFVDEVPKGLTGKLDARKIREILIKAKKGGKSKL

[3] = Luminescence Cell-Based Dose Confirmation HTS to Identify Inhibitors of Platelet Dense Granule Release. [Related pubchem assays: 1663 (Primary HTS), 1678 (Summary of Project)]; type: functional
[4] = system: H9c2; test: cells; type: functional, cell-based; conditions: Rattus norvegicus, H9c2, Myocardium;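 note: confirmatory concentration-response retest of ultra-high-throughput screening hits for modulation of myocardial damage; cell death induced by hydrogen peroxide oxidative stress; compound pretreatment for 60 min then peroxide exposure for 2 h; potency is for protecting the cells against peroxide damage rather than for killing them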
[5] = system: BJ; test: BJ-TERT fibroblast viability loss – cell-based, RAS-independent, luminescence, dose response (AID 1933); type: functional; conditions: Homo sapiens
[6] = system: BJ; test: cells; type: functional, cell-based; conditions: Homo sapiens
[7] = system: BJ; test: BJ-TERT-LT-ST fibroblast viability loss – cell-based, RAS-independent, luminescence, dose response (AID 1935); type: functional; conditions: Homo sapiens;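 note: BJ fibroblasts immortalized with TERT plus LT and ST oncogenes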
[8] = DRD fibroblast viability loss – cell-based, non-viral oncogenic, luminescence, dose response (AID 1934); type: functional; conditions: Homo sapiens
[9] = target: T2, Replicative DNA helicase DnaB (Mycobacterium tuberculosis, UniProt P9WMR3); test: DnaB intein splicing inhibitors, dose response, biochemical, cell-free fluorescence (AID 449749); type: functional
T2 sequence (P9WMR3 whole entry): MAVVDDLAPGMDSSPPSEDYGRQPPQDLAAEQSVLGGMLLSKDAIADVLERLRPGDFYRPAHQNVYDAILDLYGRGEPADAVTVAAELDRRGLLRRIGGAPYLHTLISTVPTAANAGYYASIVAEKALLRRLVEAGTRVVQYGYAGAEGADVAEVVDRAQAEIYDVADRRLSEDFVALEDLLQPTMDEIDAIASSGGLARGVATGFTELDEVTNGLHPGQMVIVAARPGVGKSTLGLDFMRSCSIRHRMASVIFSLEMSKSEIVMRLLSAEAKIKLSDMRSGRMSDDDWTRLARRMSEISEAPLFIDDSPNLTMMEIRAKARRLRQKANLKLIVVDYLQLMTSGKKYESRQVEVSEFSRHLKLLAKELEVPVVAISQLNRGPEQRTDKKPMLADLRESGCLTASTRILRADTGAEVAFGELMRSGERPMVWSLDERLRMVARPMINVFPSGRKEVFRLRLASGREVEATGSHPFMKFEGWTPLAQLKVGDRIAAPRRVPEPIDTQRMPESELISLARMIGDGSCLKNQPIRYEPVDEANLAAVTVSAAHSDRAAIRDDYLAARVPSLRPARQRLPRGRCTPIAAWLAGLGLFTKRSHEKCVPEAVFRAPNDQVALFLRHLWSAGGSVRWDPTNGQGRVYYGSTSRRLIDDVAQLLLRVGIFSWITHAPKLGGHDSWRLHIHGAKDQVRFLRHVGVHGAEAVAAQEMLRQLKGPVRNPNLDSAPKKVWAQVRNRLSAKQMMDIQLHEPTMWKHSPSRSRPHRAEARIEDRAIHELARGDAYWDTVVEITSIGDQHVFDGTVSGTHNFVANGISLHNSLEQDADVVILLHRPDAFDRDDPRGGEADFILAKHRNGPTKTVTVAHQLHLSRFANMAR

[10] = target: T3, Protein RecA (Mycobacterium tuberculosis, UniProt P9WHJ3); test: Fluorescence Cell-Free Homogeneous Dose Retest to Identify Inhibitors of RecA-Intein Splicing Activity. [Related pubchem assays (depositor defined):AID2097, AID2223, AID489010, AID492950]; type: functional
T3 sequence (P9WHJ3 whole entry): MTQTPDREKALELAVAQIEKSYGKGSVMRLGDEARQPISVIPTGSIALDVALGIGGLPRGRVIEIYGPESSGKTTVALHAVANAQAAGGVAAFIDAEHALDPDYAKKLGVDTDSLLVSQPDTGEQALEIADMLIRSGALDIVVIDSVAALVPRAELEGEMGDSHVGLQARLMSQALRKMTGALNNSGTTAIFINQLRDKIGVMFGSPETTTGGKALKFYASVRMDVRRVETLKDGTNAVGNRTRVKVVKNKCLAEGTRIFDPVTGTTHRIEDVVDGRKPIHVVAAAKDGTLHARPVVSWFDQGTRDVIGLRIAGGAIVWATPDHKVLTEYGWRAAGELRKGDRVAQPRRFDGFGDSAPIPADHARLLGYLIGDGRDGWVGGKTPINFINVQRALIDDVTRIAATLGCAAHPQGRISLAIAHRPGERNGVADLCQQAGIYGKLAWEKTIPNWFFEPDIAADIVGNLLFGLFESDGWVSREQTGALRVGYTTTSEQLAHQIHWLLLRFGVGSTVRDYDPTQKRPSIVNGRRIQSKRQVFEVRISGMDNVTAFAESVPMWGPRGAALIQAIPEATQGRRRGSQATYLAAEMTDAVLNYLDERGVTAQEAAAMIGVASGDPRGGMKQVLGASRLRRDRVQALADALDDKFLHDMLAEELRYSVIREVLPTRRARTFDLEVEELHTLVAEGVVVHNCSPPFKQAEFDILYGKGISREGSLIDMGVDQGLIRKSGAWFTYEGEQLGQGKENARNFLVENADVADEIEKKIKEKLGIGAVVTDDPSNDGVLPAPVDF

[11] = system: INS1; test: INS-1E survival protection against cytokine death – cell-based, luminescence, retest, dose response (AID 449756); type: functional; conditions: Rattus norvegicus;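 note: cell death triggered by IL-1 beta plus TNF-alpha plus IFN-gamma mixture; protective hits raise ATP signal compared with cytokine alone wells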
[12] = alpha-synuclein stem-loop luciferase translation blockers – H4 neuroglioma cells, luminescence, confirmation (AID 1988); type: functional, cell-based
[13] = Luminescence Cell-Based Dose Response HTS to Identify Inhibitors of 5'UTR Stem-Loop Driven Prion Protein mRNA Translation in H4 Neuroglioblastoma Cells. [Related pubchem assays: 1827 (Project Summary), 1813 (Primary HTS)]; type: functional
[14] = luciferase reporter signal suppression in cells – H4 neuroglioma cells, luminescence, dose response (AID 1990); type: functional, cell-based
[15] = NIH3T3 cell viability loss – ATP luminescence, mouse fibroblasts, counter-screen, dose response (AID 2010); type: functional, cell-based;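 note: cells exposed to compound for about 90 hours before reading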
[16] = Trypanosoma cruzi growth suppression in host cells – NIH3T3 host cells, beta-gal luminescence, confirmation (AID 2044); type: functional, cell-based;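 note: intracellular parasites grown in NIH/3T3 mouse fibroblasts as host cells; luminescent beta-galactosidase reporter signal from transgenic T. cruzi replicating inside host cells; inhibitors lower the luminescence signal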
[17] = target: T4, Rac GTPase-activating protein 1 (Homo sapiens, UniProt Q9H0H5); test: blockers of MgcRacGAP-driven Rac1 GTP hydrolysis – biochemical, ADP Hunter fluorescence, primary and confirmatory, confirmation (AID 624330); type: functional
T4 sequence (Q9H0H5 whole entry): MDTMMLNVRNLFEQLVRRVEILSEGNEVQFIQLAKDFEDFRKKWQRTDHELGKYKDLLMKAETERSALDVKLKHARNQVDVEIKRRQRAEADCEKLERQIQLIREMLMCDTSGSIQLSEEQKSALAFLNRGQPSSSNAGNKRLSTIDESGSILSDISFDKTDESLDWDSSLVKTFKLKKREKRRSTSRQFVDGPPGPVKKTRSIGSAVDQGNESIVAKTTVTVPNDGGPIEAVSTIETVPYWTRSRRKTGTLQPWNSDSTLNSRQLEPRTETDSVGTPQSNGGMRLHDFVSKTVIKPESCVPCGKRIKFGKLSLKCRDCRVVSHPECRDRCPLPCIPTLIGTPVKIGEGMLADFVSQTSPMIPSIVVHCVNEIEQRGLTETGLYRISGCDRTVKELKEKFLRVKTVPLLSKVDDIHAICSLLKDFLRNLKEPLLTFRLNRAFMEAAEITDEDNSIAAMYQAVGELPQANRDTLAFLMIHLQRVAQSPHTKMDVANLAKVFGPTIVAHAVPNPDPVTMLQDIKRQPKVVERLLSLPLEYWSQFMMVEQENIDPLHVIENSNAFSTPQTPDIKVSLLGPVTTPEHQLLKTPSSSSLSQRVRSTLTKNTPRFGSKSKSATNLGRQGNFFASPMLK

O=C(NNC(=O)c1cc(OCC(F)(F)F)ccc1OCC(F)(F)F)c1ccc(Cl)c(Cl)c1
IC50 [1]: 6.1 µM (not active)

CCN(C(=O)COC(=O)c1cc(-c2cccs2)nc2ccccc12)C1CCS(=O)(=O)C1 (configuration not stated)
EC50 [2]: > 112 µM (not active)
EC50 [3]: > 112 µM (not active)

COC(=O)C(Cc1ccc(O)cc1)NC(=O)C12CC3CC(CC(C3)C1)C2 (configuration not stated)
EC50 [2]: > 112 µM (not active)
EC50 [3]: 17.2 µM (active)

CCn1nc(C(=O)OCC(=O)c2c[nH]c3ccccc23)c2ccccc2c1=O
IC50 [4]: > 79 µM (inactive)
IC50 [1]: 3.99 µM (not active)

Cc1nn(C)c(Oc2ccccc2)c1CCNC(=O)CCl
EC50 [5]: 28.9 µM (active)
EC50 [6]: > 150 µM (not active)
EC50 [7]: > 150 µM (not active)
EC50 [8]: > 150 µM (not active)

CCOc1cc(NC(=O)C2CC2)c(OCC)cc1NC(=O)c1ccccn1
IC50 [4]: 12.6 µM (active)

c1csc(-c2nn3c(Cn4nnc5ccccc54)nnc3s2)c1
EC50 [2]: > 112 µM (not active)
EC50 [3]: > 112 µM (not active)

Cc1cc(NC(=O)COc2nnc(-c3ccccc3)c3ccccc23)no1
IC50 [4]: 32.3 µM (inactive)

CCCCc1c(O)nc(SCC(=O)N2CCOCC2)nc1O
EC50 [2]: > 112 µM (not active)
EC50 [3]: > 112 µM (not active)

Cn1c2ccc(F)cc2c2nnc(NN)nc21
IC50 [4]: > 79 µM (inactive)

CCOC(=O)Cc1n[nH]c2c1C(c1cc(OC)ccc1OC)C(C#N)=C(N)O2 (configuration not stated)
AC50 [9]: 73.9 µM (active)
EC50 [10]: 13.3 µM (active)

CCOc1ccc(C(C(=O)NC2CCCC2)N(C(=O)c2snc(C(N)=O)c2N)c2cccc(O)c2)cc1 (configuration not stated)
IC50 [4]: > 79 µM (inactive)

N#CCCSc1ccccc1NC(=O)c1cc(=O)c2ccccc2o1
IC50 [4]: 19.3 µM (active)

Cc1nc2sc3c(c2c(=O)n1NC(=O)CCl)CCCC3
EC50 [5]: 30.8 µM (active)
EC50 [6]: > 150 µM (not active)
EC50 [7]: > 150 µM (inconclusive)
EC50 [8]: > 150 µM (not active)

O=[N+]([O-])c1c(O)nc(O)nc1/C=C/c1cccnc1
AC50 [9]: > 380 µM (inactive)
EC50 [10]: > 380 µM (inactive)

CCCCS/C(=C(/C#N)C(N)=O)c1cc2c([nH]1)CCCC2
AC50 [9]: > 380 µM (inactive)
EC50 [10]: 15.6 µM (active)

COc1cccc(OCCNC(=O)c2cccc(OC)c2)c1
EC50 [2]: > 112 µM (not active)
EC50 [3]: > 112 µM (not active)

O=C(NCc1ccccc1)C1=C[C@@H](c2csc3ccccc23)C[C@@H](OCCCCO)O1
EC50 [5]: 22.8 µM (inconclusive)
AC50 [11]: 1.43 µM (active)
EC50 [12]: 9.75 µM (active)
EC50 [13]: 10.5 µM (active)
EC50 [6]: 35.8 µM (active)
EC50 [14]: 11.2 µM (active)
EC50 [7]: > 150 µM (not active)
EC50 [8]: 28.4 µM (active)

Cc1ccc(Nc2c([N+](=O)[O-])nn(-c3ccc4c(c3)OCCO4)[n+]2[O-])c(Cl)c1
IC50 [1]: 23.1 µM (not active)
EC50 [15]: > 60 µM (not active)
EC50 [16]: 0.199 µM (active)

Cc1ccc(NC(=O)c2cc(S(=O)(=O)N3CCOCC3)cn2C)c(C)c1
EC50 [2]: > 112 µM (not active)
EC50 [3]: > 112 µM (not active)

CCn1c(SCC(=O)N2CCCC(C)C2)nnc1-c1ccco1 (configuration not stated)
EC50 [2]: > 112 µM (not active)
EC50 [3]: > 112 µM (not active)

N#Cc1cc2c(nc1SCC(=O)Nc1sc3c(c1C#N)CCC3)CCC2
EC50 [5]: 98.7 µM (active)
EC50 [6]: > 150 µM (not active)
EC50 [7]: > 75 µM (not active)
EC50 [8]: 32.8 µM (active)

O=C(CCc1nc(O)c2ccccc2n1)Nc1ccc(Cl)c(Cl)c1
IC50 [4]: 15.4 µM (active)

Cc1ccc(CN(C)C(=O)COC(=O)CSc2ccc(C(N)=O)cc2[N+](=O)[O-])cc1
IC50 [4]: > 79 µM (inactive)

O=CNc1cc(-c2ccc(C(=O)NC3CC3)cc2)cn2c(-c3ccccc3)cnc12
IC50 [4]: > 79 µM (inactive)

COc1ccc(OCC(=O)NCc2nnc(O)c3ccccc23)cc1
IC50 [4]: > 79 µM (inactive)

Oc1ccc(Br)cc1/C=N/c1ccc2c3c(cccc13)CC2
IC50 [4]: > 79 µM (inactive)
IC50 [17]: 33.5 µM (active)
